Here are results for 30 molecules from patent US6500846B1, “CDK inhibitors having flavone structure” (LG Chemical, Ltd., priority 1998, dated 2002).

The target of one assay is T1, CDK2/cyclin A (Homo sapiens, UniProt P24941).
T1 construct: made in house; host or cells: insect cells infected with baculoviruses
Briefly: Inhibitory activity against CDK2/cyclin A enzyme (GST-RB phosphorylation, P32-γ-ATP, scintillation counting). To be noted: 100 μM ATP, GST-RB substrate, 30° C. 30 minutes. In kind it is biochemical. The protocol:
(§1) Analysis of inhibitory activity against CDK2/cyclin A and CDK4/cyclin D1 enzyme.
(§2) The inhibitory activity against CDK2 is measured by referring to Kitagawa, M. et al., Oncogene 9:2549, 1994 and the inhibitory activity against CDK4 is measured by referring to Carlson, B. A. et al., Cancer Research 56:2473,1996.
(§3) As for CDK2, either the extract from the insect cell infected both with baculovirus which expresses CDK2 gene and baculovirus which expresses cyclin A gene or the active enzyme which had been purified therefrom was used. CDK4 enzyme was also obtained from the insect cell infected both with baculovirus expressing CDK4 gene and baculovirus expressing cyclin D1 gene. As the substrate for CDK2, either histon H1 or Rb protein was used. Rb protein was also used as the substrate for CDK4.
(§4) Specifically the activities of enzymes CDK2/cyclin A and CDK4/cyclin D1 were determined according to the following procedure.
(§5) 100 ng of enzyme was reacted in a total 1000 μl of 20 mM Tris (pH 8.0), 100 mM NaCl, 10 mM MgCl2 buffer solution containing 20 μg of GST-RB protein, 100 μM of ATP and 5 μCi of P32-γ-ATP at 30° C. for 30 minutes. Then, the enzyme reaction was stopped by adding EDTA to a concentration of 20 mM. Subsequently, 30 μl of 50% glutathione bead (purchased from Pharmacia) was added to attach GST-RB to the bead, which was washed three times with 20mM Tris (pH 8.0), 100 mM NaCl, 10 mM EDTA solution, and then scintillation counting was carried out. To analyze the inhibitory activity of the compound, the inhibitor having a proper concentration was added to the enzyme reaction solution, and then the enzyme activity was measured according to the above method.
(§6) The inhibitory activity of the compound of formula (1) according to the present invention against CDK2 and CDK4 is represented as IC50 value. The compounds which are not included in Examples(compound 63, 64, 65 and 66) were synthesized and purified according to the same procedure as examples, and then IC50 thereof was measured.

Another assay addresses T2, CDK4/cyclin D1 (Homo sapiens, UniProt P11802).
T2 construct: made in house; host or cells: insect cells infected with baculoviruses
Briefly: Inhibitory activity against CDK4/cyclin D1 enzyme (GST-RB phosphorylation, P32-γ-ATP, scintillation counting). The format is biochemical. To be noted: CDK4/cyclin D1, 100 μM ATP, GST-RB substrate, 30° C. 30 minutes. The protocol: as §1, §2, §3, §4, §5, §6

T2 sequence (P11802 whole entry, species assumed): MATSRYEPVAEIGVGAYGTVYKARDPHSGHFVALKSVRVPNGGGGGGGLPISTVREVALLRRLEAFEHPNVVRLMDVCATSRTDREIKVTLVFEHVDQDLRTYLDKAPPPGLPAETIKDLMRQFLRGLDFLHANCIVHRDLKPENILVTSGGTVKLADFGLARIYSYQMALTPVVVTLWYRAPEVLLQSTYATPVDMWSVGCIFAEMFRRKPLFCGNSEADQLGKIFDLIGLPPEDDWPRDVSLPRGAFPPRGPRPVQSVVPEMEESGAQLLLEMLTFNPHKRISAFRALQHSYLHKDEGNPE
T2 sequence (P24385 whole entry partner, species assumed): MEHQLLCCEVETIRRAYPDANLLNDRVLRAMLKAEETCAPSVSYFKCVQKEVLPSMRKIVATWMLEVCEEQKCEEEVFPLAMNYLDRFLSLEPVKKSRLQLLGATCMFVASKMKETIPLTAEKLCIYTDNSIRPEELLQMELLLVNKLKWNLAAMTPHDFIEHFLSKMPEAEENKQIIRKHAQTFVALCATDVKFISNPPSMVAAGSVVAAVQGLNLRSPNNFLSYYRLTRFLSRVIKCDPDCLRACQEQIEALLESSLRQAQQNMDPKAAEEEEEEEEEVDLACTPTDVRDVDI

`CN1CCN(c2ccc(S(=O)(=O)Nc3ccc4oc(-c5ccc(O)c(O)c5)c(O)c(=O)c4c3)cc2[N+](=O)[O-])CC1` [Compound 49, N-[2-(3,4-dihydroxyphenyl)-3-hydroxy-4-oxo-4H-chromen-6-yl]-4-(4-methyl-1-piperazinyl)-3-nitrobenzenesulfonamide]: the IC50 stood at 31 µM against CDK2/cyclin A and 1.6 µM at CDK4/cyclin D1.
The matching figures for `O=c1c(O)c(-c2ccc(O)c(O)c2)oc2c(O)c(O)ccc12` [Compound 66, 2-(3,4-dihydroxyphenyl)-3,7,8-trihydroxy-4H-chromen-4-one]: under 10 µM and under 10 µM.
In the case of `O=c1c(O)c(-c2ccc(O)c(O)c2)oc2ccc(NS(=O)(=O)c3ccc(-c4ccon4)s3)cc12` [Compound 36, N-[2-(3,4-dihydroxyphenyl)-3-hydroxy-4-oxo-4H-chromen-6-yl]-5-(isooxazolyl)-2-thiophenesulfonamide], the IC50 against CDK2/cyclin A came to 12 µM; against CDK4/cyclin D1, 3.5 µM.
The matching figures for `Cc1cc2oc(-c3ccc(O)c(O)c3)c(O)c(=O)c2cc1Cl` [Compound 22, 6-chloro-2-(3,4-dihydroxyphenyl)-3-hydroxy-7-methyl-4H-chromen4-one]: under 10 µM and under 10 µM.
Regarding `Cc1ccc2oc(-c3ccc(O)c(O)c3)c(O)c(=O)c2c1` [Compound 18, 6-methyl-2-(3,4-dihydroxyphenyl)-3-hydroxy-4H-chromen-4-one], the IC50 against CDK2/cyclin A and on CDK4/cyclin D1 was under 10 µM in each case.
As for `O=c1c(O)c(-c2ccc(O)c(O)c2)oc2ccc(NS(=O)(=O)c3ccc(-c4ccccc4)cc3)cc12` [Compound 35, N-[2-(3,4-Dihydroxyphenyl)-3-hydroxy-4-oxo-4H-chromen-6-yl]-[1,1′-biphenyl]-4-sulfonamide], the IC50 against CDK2/cyclin A was determined as 4 µM; against CDK4/cyclin D1 it was 2 µM.
In the case of `COc1ccc(-c2oc3c([N+](=O)[O-])cc(Cl)cc3c(=O)c2O)cc1` [Compound 9, 6-chloro-3-hydroxy-2-(4-methoxy-phenyl)-8-nitro-chromen-4-one], the concentration for half-maximal inhibition (IC50) against CDK2/cyclin A and against CDK4/cyclin D1 was over 100 µM each time.
For `O=c1c(O)c(-c2ccc(O)c(O)c2)oc2ccc(NS(=O)(=O)c3ccc(Cl)c([N+](=O)[O-])c3)cc12` [Compound 40, 4-chloro-N-[2-(3,4-dihydroxyphenyl)-3-hydroxy-4-oxo-4H-chromen-6-yl]-3-nitrobenzenesulfonamide], the IC50 was 80 µM against CDK2/cyclin A and 2.5 µM at CDK4/cyclin D1.
Turning to `O=c1c(O)c(-c2ccc(O)c(O)c2)oc2cc(O)cc(O)c12` [Compound 65, 2-(3,4-dihydroxyphenyl)-3,5,7-trihydroxy-4H-chromen-4-one], the IC50 against CDK2/cyclin A and against CDK4/cyclin D1 was under 50 µM throughout.
As to `O=c1c(O)c(-c2ccc(O)c(O)c2)oc2ccc(NS(=O)(=O)c3ccc(F)c(F)c3)cc12` [Compound 38, N-[2-(3,4-dihydroxyphenyl)-3-hydroxy-4-oxo-4H-chromen-6-yl]-3,4-difluorobenzenesulfonamide], the results for the IC50 on CDK2/cyclin A and at CDK4/cyclin D1 were 19 µM and 2.6 µM, respectively.
As to `COc1cccc2oc(-c3ccc4c(c3)OCO4)c(O)c(=O)c12` [Compound 4, 2-(benzo[1,3]dioxol-5-yl)-3-hydroxy-5-methoxy-chromen-4-one], the concentration for half-maximal inhibition (IC50) on CDK2/cyclin A and at CDK4/cyclin D1 was over 100 µM each time.
As to `CN(C)c1cccc2c(S(=O)(=O)Nc3ccc4oc(-c5ccc(O)c(O)c5)c(O)c(=O)c4c3)cccc12` [Compound 32, N-[2-(3,4-dihydroxyphenyl)-3-hydroxy-4-oxo-4H-chromen-6-yl]-5-(dimethylamino)-1-naphthalenesulfonamide], the IC50 came to 35.5 µM on CDK2/cyclin A and 4.2 µM at CDK4/cyclin D1.
Take `COc1ccc(-c2oc3ccccc3c(=O)c2O)cc1` [Compound 11, 3-hydroxy-2-(4-methoxy-phenyl)-chromen-4-one]: the IC50 against CDK2/cyclin A and against CDK4/cyclin D1 was over 100 µM in each case.
Consider `O=c1c(O)c(-c2ccc(O)c(O)c2)oc2ccc(NS(=O)(=O)c3ccc(F)cc3F)cc12` [Compound 42, N-[2-(3,4-dihydroxyphenyl)-3-hydroxy-4-oxo-4H-chromen-6-yl]-2,4-difluorobenzenesulfonamide], for which the half-maximal inhibitory concentration (IC50) on CDK2/cyclin A was 46 µM; against CDK4/cyclin D1 it was 4.3 µM.
Regarding `O=c1c(O)c(-c2ccc(O)c(O)c2)oc2ccc(NS(=O)(=O)c3ccc(F)cc3)cc12` [Compound 43, N-[2-(3,4-dihydroxyphenyl)-3-hydroxy-4-oxo-4H-chromen-6-yl]-4-fluorobenzenesulfonamide], the IC50 was found to be 8.6 µM against CDK2/cyclin A and 2.1 µM at CDK4/cyclin D1.
For `COc1ccc2c(=O)c(O)c(-c3ccc(Cl)cc3)oc2c1` [Compound 8, 2-(4-chloro-phenyl)-3-hydroxy-7-methoxy-chromen-4-one], the IC50 against CDK2/cyclin A and at CDK4/cyclin D1 was over 100 µM each time.
`O=c1c(O)c(-c2ccc(O)c(O)c2)oc2ccc(NS(=O)(=O)c3cccc(Br)c3)cc12` [Compound 30, 3-bromo-N-[2-(3,4-dihydroxyphenyl)-3-hydroxy-4-oxo-4H-chromen-6-yl]benzenesulfonamide]: the half-maximal inhibitory concentration (IC50) on CDK2/cyclin A was found to be 14 µM; at CDK4/cyclin D1, 2.1 µM.
The matching figures for `O=C(Nc1ccc(Br)cc1)Nc1ccc2oc(-c3ccc(O)c(O)c3)c(O)c(=O)c2c1` [Compound 55, N-(4-bromophenyl)-N′-[2-(3,4-dihydroxyphenyl)-3-hydroxy-4-oxo-4H-chromen-6-yl]urea]: 1.3 µM and 0.7 µM.
The matching figures for `COc1ccc2c(=O)cc(-c3ccc(Cl)cc3)oc2c1` [Compound 1, 2-(4-chloro-phenyl)-7-methoxy-chromen-4-one]: over 200 µM and over 200 µM.
On to `O=c1c(O)c(-c2ccc(O)c(O)c2)oc2ccc(NS(=O)(=O)c3cc(Br)c(Br)s3)cc12` [Compound 34, 4,5-Dibromo-N-[2-(3,4-dihydroxyphenyl)-3-hydroxy-4-oxo-4H-chromen-6-yl]-2-thiophenesulfonamide], for which the IC50 came out at 3 µM against CDK2/cyclin A and 1 µM on CDK4/cyclin D1.
With `O=c1cc(-c2ccccc2)oc2cc(O)ccc12` [Compound 3, 7-hydroxy-2-phenyl-chromen-4-one], the IC50 against CDK2/cyclin A and against CDK4/cyclin D1 was over 200 µM throughout.
Consider `O=C(Nc1cccc(Br)c1)Nc1ccc2oc(-c3ccc(O)c(O)c3)c(O)c(=O)c2c1` [Compound 58, N-(3-bromophenyl)-N′-[2-(3,4-dihydroxyphenyl)-3-hydroxy-4-oxo-4H-chromen-6-yl]urea], for which the half-maximal inhibitory concentration (IC50) on CDK2/cyclin A and against CDK4/cyclin D1 was 4.2 µM each time.
As to `O=c1c(O)c(-c2ccc(O)c(O)c2)oc2c(F)cc(F)cc12` [Compound 21, 6,8-difluoro-2-(3,4-dihydroxyphenyl)-3-hydroxy-4H-chromen-4-one], the IC50 against CDK2/cyclin A and on CDK4/cyclin D1 was under 10 µM each time.
Take `O=c1c(O)c(-c2ccc(O)c(O)c2)oc2ccccc12` [Compound 63, 2-(3,4-dihydroxyphenyl)-3-hydoxy-4H-chromen-4-one]: the half-maximal inhibitory concentration (IC50) at CDK2/cyclin A and against CDK4/cyclin D1 was under 10 µM each time.
As for `O=C(O)c1ccc(S(=O)(=O)Nc2ccc3oc(-c4ccc(O)c(O)c4)c(O)c(=O)c3c2)cc1` [Compound 45, 4-({[2-(3,4-dihydroxyphenyl)-3-hydroxy-4-oxo-4H-chromen-6-yl]amino}sulfonyl)benzoic acid], the figures for the IC50 against CDK2/cyclin A and against CDK4/cyclin D1 were 28.2 µM and 6 µM, respectively.
As to `O=c1c(O)c(-c2ccc(O)c(O)c2)oc2ccc(NS(=O)(=O)c3ccc(Br)cc3)cc12` [Compound 29, 4-bromo-N-[2-(3,4-dihydroxyphenyl)-3-hydroxy-4-oxo-4H-chromen-6-yl]benzenesulfonamide], the concentration for half-maximal inhibition (IC50) against CDK2/cyclin A amounted to 17.8 µM; at CDK4/cyclin D1 it was 1.8 µM.
For the molecule `O=c1c(O)c(-c2ccc(O)c(O)c2)oc2cc(O)ccc12` [Compound 64, 2-(3,4-dihydroxyphenyl)-3,7-dihydroxy-4H-chromen-4-one], the half-maximal inhibitory concentration (IC50) against CDK2/cyclin A was under 5 µM; against CDK4/cyclin D1, under 10 µM.
The matching figures for `CN1CCN(c2ccc(S(=O)(=O)Nc3ccc4oc(-c5ccc(O)c(O)c5)c(O)c(=O)c4c3)cc2N)CC1` [Compound 50, 3-amino-N-[2-(3,4-dihydroxyphenyl)-3-hydroxy-4-oxo-4H-chromen-6-yl]-4-(4-methyl-1-piperazinyl)benzenesulfonamide]: over 200 µM and 30 µM.
Turning to `Cc1cc2oc(-c3ccc(O)c(O)c3)c(O)c(=O)c2cc1C` [Compound 26, 2-(3,4-dihydroxyphenyl)-6,7-dimethyl-3-hydroxy-4H-chromen-4-one], the concentration for half-maximal inhibition (IC50) on CDK2/cyclin A and against CDK4/cyclin D1 was under 10 µM each time.
As for `O=c1c(O)c(-c2ccc(O)c(O)c2)oc2ccc(NS(=O)(=O)CCc3cccc4ccccc34)cc12` [Compound 33, N-[2-(3,4-dihydroxyphenyl)-3-hydroxy-4-oxo-4H-chromen-6-yl]-2-(1-naphthyl)-1-ethanesulfonamide], the concentration for half-maximal inhibition (IC50) against CDK2/cyclin A was determined as 63 µM; against CDK4/cyclin D1, 5 µM.
